According to patent US6737383B1, “Herbicidal oxadiazolidines” (priority 1999, dated 2004):

Tests used:
corn = assay: Test B pre/postemergence corn; format: in vivo, Zea mays
In short: (§1)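 Herbicidal effect was estimated by eye on a ten-point control scale after plants spent twelve to sixteen days in a greenhouse following soil or foliar treatment. Foliar sprays targeted plants at one to four leaves; all doses were formulated in a non-phytotoxic solvent with surfactant.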

rape = assay: Test B pre/postemergence rape; format: in vivo, Brassica napus
In short: as §1

rice = assay: Test B flood test rice; format: in vivo, Oryza sativa
In short: (§2)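 Each value is a visual injury score relative to controls, with 10 meaning complete control and 0 no effect. Evaluation took place twelve to sixteen days after the 2-leaf-stage plants were treated and kept in the greenhouse.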

surinam grass = assay: Test B pre/postemergence surinam grass; format: in vivo, Brachiaria decumbens
In short: as §1

pigweed = assay: Test B pre/postemergence pigweed; format: in vivo, Amaranthus retroflexus
In short: as §1

wild oat = assay: Test B pre/postemergence wild oat; format: in vivo, Avena fatua
In short: as §1

cocklebur = assay: Test B pre/postemergence cocklebur; format: in vivo, Xanthium strumarium
In short: as §1

crabgrass = assay: Test B pre/postemergence crabgrass; format: in vivo, Digitaria sanguinalis
In short: as §1

giant foxtail = assay: Test B pre/postemergence giant foxtail; format: in vivo, Setaria faberii
In short: as §1

velvetleaf = assay: Test B pre/postemergence velvetleaf; format: in vivo, Abutilon theophrasti
In short: as §1

bamyardgrass = assay: Test B flood test barnyardgrass; format: in vivo, Echinochloa crus-galli
In short: as §2

smallflower flatsedge = assay: Test B flood test smallflower flatsedge; format: in vivo, Cyperus difformis
In short: as §2

wheat = assay: Test B pre/postemergence wheat; format: in vivo, Triticum aestivum
In short: as §1

sugar beet = assay: Test B pre/postemergence sugar beet; format: in vivo, Beta vulgaris
In short: as §1

soybean = assay: Test B pre/postemergence soybean; format: in vivo, Glycine max
In short: as §1

morningglory = assay: Test B pre/postemergence morningglory; format: in vivo, Ipomoea hederacea
In short: as §1

blackgrass = assay: Test B pre/postemergence blackgrass; format: in vivo, Alopecurus myosuroides
In short: as §1

duck salad = assay: Test B flood test duck salad; format: in vivo, Heteranthera limosa
In short: as §2

purple nutsedge = assay: Test B pre/postemergence purple nutsedge; format: in vivo, Cyperus rotundus
In short: as §1

[1] = Postemergence, Rate 62 g/ha, scale 0 to 10, 0 is no effect, 10 is complete control
[2] = Postemergence, Rate 125 g/ha, scale of 0 to 10 where 0 is no effect and 10 is complete control
[3] = Postemergence, Rate 250 g/ha, scale of 0 to 10, 0 is no effect, 10 is complete control
[4] = Postemergence, Rate 500 g/ha, scale of 0 to 10 where 0 is no effect and 10 is complete control
[5] = Preemergence, Rate 62 g/ha, scale 0 to 10 (0 no effect, 10 complete control)
[6] = Preemergence, Rate 125 g/ha, scale of 0 to 10 where 0 is no effect and 10 is complete control
[7] = Preemergence, Rate 500 g/ha, scale of 0 to 10 where 0 is no effect and 10 is complete control
[8] = Rate 62 g/ha, flood test species, Pre-emergence, visual evaluation after twelve to sixteen days
[9] = Rate 125 g/ha, under heading Pre-emergence, flood test species, visual evaluation after twelve to sixteen days
[10] = Rate 250 g/ha, Pre-emergence (flood test species), scale 0 to 10, 0 is no effect, 10 is complete control
[11] = Rate 500 g/ha, Pre-emergence section of Table B, 0 to 10 scale (0 no effect, 10 complete control)

## CC(C)N(C(=O)n1oc(=O)n(CC(C)[N+](=O)[O-])c1=O)c1ccc(F)cc1F (centres unmarked) [Compound 603]
corn; [1]
  Plant response rating, Corn: 0
corn; [2]
  Plant response rating, Corn: 0
corn; [3]
  Corn plant response rating: 0
corn; [4]
  Plant response rating, Corn: 0
corn; [5]
  Corn plant response rating: 0
corn; [6]
  Corn plant response rating: 0
corn; Preemergence, Rate 250 g/ha
  Corn plant response rating (0 to 10 scale): 0
corn; [7]
  Plant response rating, Corn: 0
rape; [1]
  Plant response rating, Rape: 0
rape; [2]
  Plant response rating, Rape: 0
rape; [3]
  Rape plant response rating: 0
rape; [4]
  Plant response rating, Rape: 0
rape; [5]
  Rape plant response rating: 0
rape; [6]
  Rape plant response rating: 0
rape; [7]
  Plant response rating, Rape: 0
rice; [8]
  Plant response rating, Rice (0 to 10 scale, 0 is no effect, 10 is complete control): 0
rice; [9]
  Rice plant response rating (0 to 10 scale, 0 is no effect, 10 is complete control): 0
rice; [10]
  Rice plant response rating: 0
rice; [11]
  Rice plant response rating: 0
Surinam grass; [1]
  Plant response rating, B. signalgrass: 0
Surinam grass; [2]
  Plant response rating, B. signalgrass: 0
Surinam grass; [3]
  B. signalgrass plant response rating: 0
Surinam grass; [4]
  Plant response rating, B. signalgrass: 0
Surinam grass; [5]
  B. signalgrass plant response rating: 0
Surinam grass; [6]
  B. signalgrass plant response rating: 0
Surinam grass; Preemergence, Rate 250 g/ha
  B. signalgrass plant response rating (0 to 10 scale, 0 is no effect, 10 is complete control): 0
Surinam grass; [7]
  B. signalgrass plant response rating: 0
pigweed; [1]
  Plant response rating, Redroot pigweed: 0
pigweed; [2]
  Plant response rating, Redroot pigweed: 0
pigweed; [3]
  Redroot pigweed plant response rating: 0
pigweed; [4]
  Plant response rating, Redroot pigweed: 0
pigweed; [5]
  Redroot pigweed plant response rating: 0
pigweed; [6]
  Redroot pigweed plant response rating: 0
pigweed; [7]
  Plant response rating, Redroot pigweed: 0
Wild oat; [1]
  Plant response rating, Wild oats: 0
Wild oat; [2]
  Plant response rating, Wild oats: 0
Wild oat; [3]
  Wild oats plant response rating: 0
Wild oat; [4]
  Plant response rating, Wild oats: 0
Wild oat; [5]
  Wild oats plant response rating: 0
Wild oat; [6]
  Wild oats plant response rating: 0
Wild oat; [7]
  Plant response rating, Wild oats: 0
cocklebur; [1]
  Plant response rating, Cocklebur: 0
cocklebur; [2]
  Plant response rating, Cocklebur: 0
cocklebur; [3]
  Cocklebur plant response rating: 0
cocklebur; [4]
  Plant response rating, Cocklebur: 0
cocklebur; [5]
  Cocklebur plant response rating: 0
cocklebur; [6]
  Cocklebur plant response rating: 0
cocklebur; Preemergence, Rate 250 g/ha
  Cocklebur plant response rating (0 to 10 scale): 0
cocklebur; [7]
  Plant response rating, Cocklebur: 0
crabgrass; [1]
  Plant response rating, Crabgrass: 0
crabgrass; [2]
  Plant response rating, Crabgrass: 0
crabgrass; [3]
  Crabgrass plant response rating: 0
crabgrass; [4]
  Plant response rating, Crabgrass: 0
crabgrass; [5]
  Crabgrass plant response rating: 0
crabgrass; [6]
  Crabgrass plant response rating: 0
crabgrass; [7]
  Plant response rating, Crabgrass: 0
Giant foxtail; [1]
  Plant response rating, Giant foxtail: 0
Giant foxtail; [2]
  Plant response rating, Giant foxtail: 0
Giant foxtail; [3]
  Giant foxtail plant response rating: 0
Giant foxtail; [4]
  Plant response rating, Giant foxtail: 0
Giant foxtail; [5]
  Giant foxtail plant response rating: 0
Giant foxtail; [6]
  Giant foxtail plant response rating: 0
Giant foxtail; [7]
  Plant response rating, Giant foxtail: 0
velvetleaf; [1]
  Plant response rating, Velvetleaf: 0
velvetleaf; [2]
  Plant response rating, Velvetleaf: 0
velvetleaf; [3]
  Velvetleaf plant response rating: 0
velvetleaf; [4]
  Plant response rating, Velvetleaf: 2
velvetleaf; [5]
  Velvetleaf plant response rating: 0
velvetleaf; [6]
  Velvetleaf plant response rating: 0
velvetleaf; [7]
  Plant response rating, Velvetleaf: 0
bamyardgrass; [8]
  Plant response rating, Barnyardgrass (0 to 10 scale, 0 is no effect, 10 is complete control): 0
bamyardgrass; [9]
  Barnyardgrass plant response rating (0 to 10 scale, 0 is no effect, 10 is complete control): 0
bamyardgrass; [10]
  Barnyardgrass plant response rating: 0
bamyardgrass; [11]
  Barnyardgrass plant response rating: 0
Smallflower flatsedge; [8]
  Plant response rating, S. Flatsedge (0 to 10 scale, 0 is no effect, 10 is complete control): 0
Smallflower flatsedge; [9]
  S. Flatsedge plant response rating (0 to 10 scale, 0 is no effect, 10 is complete control): 0
Smallflower flatsedge; [10]
  S. Flatsedge plant response rating: 0
Smallflower flatsedge; [11]
  S. Flatsedge plant response rating: 0
wheat; [1]
  Plant response rating, Wheat: 0
wheat; [2]
  Plant response rating, Wheat: 0
wheat; [3]
  Wheat plant response rating: 0
wheat; [4]
  Plant response rating, Wheat: 0
wheat; [5]
  Wheat plant response rating: 0
wheat; [6]
  Wheat plant response rating: 0
wheat; [7]
  Plant response rating, Wheat: 0
Sugar beet; [1]
  Plant response rating, Sugarbeets: 0
Sugar beet; [2]
  Plant response rating, Sugarbeets: 0
Sugar beet; [3]
  Sugarbeets plant response rating: 0
Sugar beet; [4]
  Plant response rating, Sugarbeets: 0
Sugar beet; [5]
  Sugarbeets plant response rating: 0
Sugar beet; [6]
  Sugarbeets plant response rating: 0
Sugar beet; [7]
  Plant response rating, Sugarbeets: 0
soybean; [1]
  Plant response rating, Soybean: 0
soybean; [2]
  Plant response rating, Soybean: 0
soybean; [3]
  Soybean plant response rating: 2
soybean; [4]
  Plant response rating, Soybean: 2
soybean; [5]
  Soybean plant response rating: 0
soybean; [6]
  Soybean plant response rating: 0
soybean; [7]
  Plant response rating, Soybean: 0
morningglory; [1]
  Plant response rating, Morningglory: 0
morningglory; [2]
  Plant response rating, Morningglory: 0
morningglory; [3]
  Morningglory plant response rating: 2
morningglory; [4]
  Plant response rating, Morningglory: 3
morningglory; [5]
  Morningglory plant response rating: 0
morningglory; [6]
  Morningglory plant response rating: 0
morningglory; [7]
  Plant response rating, Morningglory: 0
blackgrass; [1]
  Plant response rating, Blackgrass: 0
blackgrass; [2]
  Plant response rating, Blackgrass: 0
blackgrass; [3]
  Blackgrass plant response rating: 0
blackgrass; [4]
  Plant response rating, Blackgrass: 0
blackgrass; [5]
  Blackgrass plant response rating: 0
blackgrass; [6]
  Blackgrass plant response rating: 0
blackgrass; Preemergence, Rate 250 g/ha
  Blackgrass plant response rating (0 to 10 scale): 0
blackgrass; [7]
  Blackgrass plant response rating: 0
Duck salad; [8]
  Plant response rating, Ducksalad (0 to 10 scale, 0 is no effect, 10 is complete control): 0
Duck salad; [9]
  Ducksalad plant response rating (0 to 10 scale, 0 is no effect, 10 is complete control): 0
Duck salad; [10]
  Ducksalad plant response rating: 0
Duck salad; [11]
  Ducksalad plant response rating: 0
Purple nutsedge; [1]
  Plant response rating, Nutsedge: 0
Purple nutsedge; [2]
  Plant response rating, Nutsedge: 0
Purple nutsedge; [3]
  Nutsedge plant response rating: 0
Purple nutsedge; [4]
  Plant response rating, Nutsedge: 0
Purple nutsedge; [5]
  Nutsedge plant response rating: 0
Purple nutsedge; [6]
  Nutsedge plant response rating: 0
Purple nutsedge; [7]
  Plant response rating, Nutsedge: 0
